Results as given in PMC6458995, “MAP4K4 Inhibition Promotes Survival of Human Stem Cell-Derived Cardiomyocytes and Reduces Infarct Size In Vivo” (Cell Stem Cell, 2019).

Assays:
Assay in all cases: Dundee kinase panel
Type in all cases: biochemical
Settings in all cases: for remaining activity at 1 µM: read-out: residual activity
BRSK2 = target: T1, BRSK2 (Homo sapiens, UniProt Q8IWQ3)
T1 construct: lines 1-140) and Reaction Biology
T1 sequence (Q8IWQ3 1-736): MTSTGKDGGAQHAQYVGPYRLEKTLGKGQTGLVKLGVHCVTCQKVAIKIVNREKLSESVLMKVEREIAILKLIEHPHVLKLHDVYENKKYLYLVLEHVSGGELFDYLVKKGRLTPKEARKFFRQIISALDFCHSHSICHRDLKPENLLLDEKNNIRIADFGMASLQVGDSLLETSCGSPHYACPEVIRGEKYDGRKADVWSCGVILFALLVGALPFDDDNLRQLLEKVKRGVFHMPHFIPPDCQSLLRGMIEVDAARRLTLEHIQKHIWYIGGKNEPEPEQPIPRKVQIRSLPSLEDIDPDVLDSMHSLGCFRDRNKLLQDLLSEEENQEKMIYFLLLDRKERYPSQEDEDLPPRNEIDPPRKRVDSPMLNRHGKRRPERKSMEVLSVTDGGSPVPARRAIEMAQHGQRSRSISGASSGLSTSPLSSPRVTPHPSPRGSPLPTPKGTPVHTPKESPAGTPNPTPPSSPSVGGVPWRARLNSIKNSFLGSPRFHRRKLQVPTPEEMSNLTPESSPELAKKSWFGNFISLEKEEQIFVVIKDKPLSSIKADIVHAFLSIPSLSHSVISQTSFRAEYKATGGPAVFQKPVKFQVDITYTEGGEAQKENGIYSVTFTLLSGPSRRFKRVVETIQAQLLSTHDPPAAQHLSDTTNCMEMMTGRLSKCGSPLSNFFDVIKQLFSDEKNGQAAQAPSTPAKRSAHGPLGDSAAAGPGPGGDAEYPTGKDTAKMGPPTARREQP
Experimental: (§1) Compounds were screened at 1 μM. For key hits, pIC50 values were then determined by HTRF as above. […] Stability in mouse and human liver microsomes was determined by Cyprotex.

CAMK1 = target: T2, CAMK1 (Homo sapiens, UniProt Q14012)
T2 construct: lines 1-140) and Reaction Biology
Experimental: as §1

CAMKKb = target: T3, CAMKKb (Homo sapiens, UniProt Q96RR4)
T3 construct: lines 1-140) and Reaction Biology
Experimental: as §1

DAPK1 = target: T4, DAPK1 (Homo sapiens, UniProt P53355)
T4 construct: lines 1-140) and Reaction Biology
Experimental: as §1

EIF2AK3 = target: T5, EIF2AK3 (Homo sapiens, UniProt Q9NZJ5)
T5 construct: lines 1-140) and Reaction Biology
T5 sequence (Q9NZJ5 30-1116): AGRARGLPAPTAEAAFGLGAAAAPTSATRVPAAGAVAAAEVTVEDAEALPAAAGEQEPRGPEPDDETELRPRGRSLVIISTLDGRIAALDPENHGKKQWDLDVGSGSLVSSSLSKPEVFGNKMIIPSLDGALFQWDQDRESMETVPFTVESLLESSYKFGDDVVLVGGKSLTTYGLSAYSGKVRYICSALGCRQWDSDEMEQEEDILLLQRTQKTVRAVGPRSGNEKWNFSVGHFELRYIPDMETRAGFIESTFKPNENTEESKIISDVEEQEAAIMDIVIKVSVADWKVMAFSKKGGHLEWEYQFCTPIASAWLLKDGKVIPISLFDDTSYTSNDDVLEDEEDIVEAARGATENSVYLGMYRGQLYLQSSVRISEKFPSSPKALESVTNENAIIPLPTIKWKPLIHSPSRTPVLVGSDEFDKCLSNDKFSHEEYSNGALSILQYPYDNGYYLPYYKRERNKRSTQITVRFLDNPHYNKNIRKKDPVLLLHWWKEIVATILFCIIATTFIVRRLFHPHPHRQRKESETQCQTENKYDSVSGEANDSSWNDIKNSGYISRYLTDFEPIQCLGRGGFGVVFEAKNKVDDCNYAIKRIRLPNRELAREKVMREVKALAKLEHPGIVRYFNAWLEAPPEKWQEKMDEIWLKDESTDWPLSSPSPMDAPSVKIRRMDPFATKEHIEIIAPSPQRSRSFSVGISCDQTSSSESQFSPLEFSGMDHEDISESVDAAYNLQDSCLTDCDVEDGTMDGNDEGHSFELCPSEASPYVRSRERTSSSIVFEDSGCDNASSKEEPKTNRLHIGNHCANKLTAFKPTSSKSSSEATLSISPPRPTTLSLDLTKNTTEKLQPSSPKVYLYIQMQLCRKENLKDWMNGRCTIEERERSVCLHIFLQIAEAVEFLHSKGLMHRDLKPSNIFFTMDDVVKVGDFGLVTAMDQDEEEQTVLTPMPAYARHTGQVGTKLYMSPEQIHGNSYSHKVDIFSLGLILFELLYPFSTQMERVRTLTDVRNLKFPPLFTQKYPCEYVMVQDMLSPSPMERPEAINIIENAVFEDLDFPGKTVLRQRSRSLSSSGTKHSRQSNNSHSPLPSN
Experimental: as §1

MAPKAP-K2 = target: T6, MAPKAP-K2 (Homo sapiens, UniProt P49137)
T6 construct: lines 1-140) and Reaction Biology
Experimental: as §1

MKK2 = target: T7, MKK2 (Homo sapiens, UniProt P36507)
T7 construct: lines 1-140) and Reaction Biology
Experimental: as §1

PAK2 = target: T8, PAK2 (Homo sapiens, UniProt Q13177)
T8 construct: lines 1-140) and Reaction Biology
Experimental: as §1

PKBa = target: T9, PKBa (Homo sapiens, UniProt P31749)
T9 construct: lines 1-140) and Reaction Biology
Experimental: as §1

PKBb = target: T10, PKBb (Homo sapiens, UniProt P31751)
T10 construct: lines 1-140) and Reaction Biology
Experimental: as §1

PRK2 = target: T11, PRK2 (Homo sapiens, UniProt Q16513)
T11 construct: lines 1-140) and Reaction Biology
Experimental: as §1

TESK1 = target: T12, TESK1 (Homo sapiens, UniProt Q15569)
T12 construct: lines 1-140) and Reaction Biology
Experimental: as §1

YES1 = target: T13, YES1 (Homo sapiens, UniProt P07947)
T13 construct: lines 1-140) and Reaction Biology
Experimental: as §1

T6 sequence (P49137 whole entry): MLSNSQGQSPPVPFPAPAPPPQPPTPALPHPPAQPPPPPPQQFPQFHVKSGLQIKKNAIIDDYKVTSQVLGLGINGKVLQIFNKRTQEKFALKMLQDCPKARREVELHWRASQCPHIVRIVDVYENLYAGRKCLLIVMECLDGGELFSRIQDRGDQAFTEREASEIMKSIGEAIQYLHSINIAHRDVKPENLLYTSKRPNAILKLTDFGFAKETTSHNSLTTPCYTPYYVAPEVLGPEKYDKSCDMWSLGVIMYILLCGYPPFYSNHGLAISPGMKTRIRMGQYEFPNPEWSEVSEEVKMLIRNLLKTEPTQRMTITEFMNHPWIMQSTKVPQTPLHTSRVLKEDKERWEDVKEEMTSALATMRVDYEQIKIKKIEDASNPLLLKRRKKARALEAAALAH
T12 sequence (Q15569 whole entry): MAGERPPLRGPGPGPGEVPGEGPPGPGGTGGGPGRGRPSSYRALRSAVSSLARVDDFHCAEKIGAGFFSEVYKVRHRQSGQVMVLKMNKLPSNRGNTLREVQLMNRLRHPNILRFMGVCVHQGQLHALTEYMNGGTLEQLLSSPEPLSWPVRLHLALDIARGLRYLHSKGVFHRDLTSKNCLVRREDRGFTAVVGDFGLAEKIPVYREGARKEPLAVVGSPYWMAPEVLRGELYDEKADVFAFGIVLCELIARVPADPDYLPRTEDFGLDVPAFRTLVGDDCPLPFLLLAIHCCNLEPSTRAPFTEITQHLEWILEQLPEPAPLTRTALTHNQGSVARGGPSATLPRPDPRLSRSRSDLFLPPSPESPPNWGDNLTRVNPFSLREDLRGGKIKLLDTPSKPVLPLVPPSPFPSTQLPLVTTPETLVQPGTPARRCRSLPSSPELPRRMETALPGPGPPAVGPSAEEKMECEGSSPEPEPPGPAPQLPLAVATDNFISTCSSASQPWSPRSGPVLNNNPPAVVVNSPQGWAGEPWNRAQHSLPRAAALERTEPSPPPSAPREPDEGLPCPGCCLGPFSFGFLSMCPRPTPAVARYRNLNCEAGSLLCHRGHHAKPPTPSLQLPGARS
T11 sequence (Q16513 whole entry): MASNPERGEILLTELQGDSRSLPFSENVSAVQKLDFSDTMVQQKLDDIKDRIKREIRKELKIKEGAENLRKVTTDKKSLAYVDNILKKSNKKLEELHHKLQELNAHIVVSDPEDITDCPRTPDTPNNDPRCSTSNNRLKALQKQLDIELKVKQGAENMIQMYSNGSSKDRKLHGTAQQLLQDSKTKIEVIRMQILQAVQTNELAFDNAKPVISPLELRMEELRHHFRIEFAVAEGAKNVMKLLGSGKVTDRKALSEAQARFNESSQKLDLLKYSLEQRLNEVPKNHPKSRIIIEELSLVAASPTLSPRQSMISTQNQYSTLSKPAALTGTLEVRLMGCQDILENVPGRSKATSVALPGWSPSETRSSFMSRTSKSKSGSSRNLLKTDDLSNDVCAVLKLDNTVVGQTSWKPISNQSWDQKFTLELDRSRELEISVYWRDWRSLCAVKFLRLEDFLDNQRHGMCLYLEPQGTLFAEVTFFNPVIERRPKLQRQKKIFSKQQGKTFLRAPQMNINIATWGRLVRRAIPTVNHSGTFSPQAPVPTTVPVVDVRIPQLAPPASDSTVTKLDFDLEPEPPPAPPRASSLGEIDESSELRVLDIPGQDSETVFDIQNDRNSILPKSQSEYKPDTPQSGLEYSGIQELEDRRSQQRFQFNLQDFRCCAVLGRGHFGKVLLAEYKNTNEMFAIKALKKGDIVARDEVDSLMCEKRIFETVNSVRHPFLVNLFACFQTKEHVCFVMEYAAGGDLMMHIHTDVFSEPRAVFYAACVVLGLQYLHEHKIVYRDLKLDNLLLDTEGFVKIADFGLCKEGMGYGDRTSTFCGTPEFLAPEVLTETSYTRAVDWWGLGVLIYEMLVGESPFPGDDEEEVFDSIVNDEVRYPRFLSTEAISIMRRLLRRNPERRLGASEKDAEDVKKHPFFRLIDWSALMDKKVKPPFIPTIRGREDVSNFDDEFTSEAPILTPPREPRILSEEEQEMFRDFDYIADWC
T9 sequence (P31749 whole entry): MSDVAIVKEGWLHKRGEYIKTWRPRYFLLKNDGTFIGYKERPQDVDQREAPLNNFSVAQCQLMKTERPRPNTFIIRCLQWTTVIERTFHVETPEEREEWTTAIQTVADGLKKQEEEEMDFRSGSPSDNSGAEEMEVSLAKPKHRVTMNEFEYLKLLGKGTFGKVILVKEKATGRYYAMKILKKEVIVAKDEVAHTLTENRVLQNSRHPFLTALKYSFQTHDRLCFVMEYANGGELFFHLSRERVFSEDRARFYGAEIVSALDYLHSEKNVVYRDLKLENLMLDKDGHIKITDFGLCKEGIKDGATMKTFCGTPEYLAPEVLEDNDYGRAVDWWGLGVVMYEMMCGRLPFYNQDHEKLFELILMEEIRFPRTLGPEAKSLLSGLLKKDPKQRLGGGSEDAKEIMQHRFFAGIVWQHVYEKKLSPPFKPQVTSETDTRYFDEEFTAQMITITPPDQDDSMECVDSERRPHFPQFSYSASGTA
T13 sequence (P07947 whole entry): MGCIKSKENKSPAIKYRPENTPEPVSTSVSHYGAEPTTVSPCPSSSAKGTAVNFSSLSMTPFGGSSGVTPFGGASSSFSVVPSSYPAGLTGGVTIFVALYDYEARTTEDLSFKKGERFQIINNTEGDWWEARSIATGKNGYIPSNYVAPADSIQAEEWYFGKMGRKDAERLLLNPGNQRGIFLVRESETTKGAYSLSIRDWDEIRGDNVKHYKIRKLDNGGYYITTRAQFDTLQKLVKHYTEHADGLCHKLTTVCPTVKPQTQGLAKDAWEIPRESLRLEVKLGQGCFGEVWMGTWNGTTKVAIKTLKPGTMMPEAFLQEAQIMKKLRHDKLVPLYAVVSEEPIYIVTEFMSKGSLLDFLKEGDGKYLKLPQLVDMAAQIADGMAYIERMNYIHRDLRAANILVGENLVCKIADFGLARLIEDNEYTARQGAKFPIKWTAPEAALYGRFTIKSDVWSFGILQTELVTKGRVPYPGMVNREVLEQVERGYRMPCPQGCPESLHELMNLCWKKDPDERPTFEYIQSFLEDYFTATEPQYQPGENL
T2 sequence (Q14012 whole entry): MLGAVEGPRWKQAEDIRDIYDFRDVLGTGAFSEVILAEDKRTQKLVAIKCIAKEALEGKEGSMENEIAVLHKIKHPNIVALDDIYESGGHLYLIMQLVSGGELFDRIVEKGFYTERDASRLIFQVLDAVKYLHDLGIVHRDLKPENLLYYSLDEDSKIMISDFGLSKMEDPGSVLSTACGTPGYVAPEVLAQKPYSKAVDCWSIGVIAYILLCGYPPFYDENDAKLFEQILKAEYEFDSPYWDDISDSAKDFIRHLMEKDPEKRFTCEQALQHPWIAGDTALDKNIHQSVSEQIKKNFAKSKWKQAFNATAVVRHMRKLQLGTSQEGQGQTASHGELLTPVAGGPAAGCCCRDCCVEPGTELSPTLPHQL
T3 sequence (Q96RR4 whole entry): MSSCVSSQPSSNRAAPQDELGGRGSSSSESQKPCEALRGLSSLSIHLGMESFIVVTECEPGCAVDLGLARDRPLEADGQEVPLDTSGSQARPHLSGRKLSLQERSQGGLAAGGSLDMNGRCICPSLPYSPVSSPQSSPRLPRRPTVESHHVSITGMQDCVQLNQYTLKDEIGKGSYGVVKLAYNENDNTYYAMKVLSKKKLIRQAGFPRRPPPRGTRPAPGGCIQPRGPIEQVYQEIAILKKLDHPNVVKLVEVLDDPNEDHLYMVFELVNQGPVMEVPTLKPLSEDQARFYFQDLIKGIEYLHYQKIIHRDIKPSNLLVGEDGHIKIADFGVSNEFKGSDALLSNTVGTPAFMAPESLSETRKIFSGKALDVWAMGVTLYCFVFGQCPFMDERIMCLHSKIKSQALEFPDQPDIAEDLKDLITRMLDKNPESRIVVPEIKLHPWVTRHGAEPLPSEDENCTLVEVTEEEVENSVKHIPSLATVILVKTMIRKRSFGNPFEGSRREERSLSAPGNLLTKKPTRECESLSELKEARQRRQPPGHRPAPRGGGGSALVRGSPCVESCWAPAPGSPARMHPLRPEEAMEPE
T10 sequence (P31751 whole entry): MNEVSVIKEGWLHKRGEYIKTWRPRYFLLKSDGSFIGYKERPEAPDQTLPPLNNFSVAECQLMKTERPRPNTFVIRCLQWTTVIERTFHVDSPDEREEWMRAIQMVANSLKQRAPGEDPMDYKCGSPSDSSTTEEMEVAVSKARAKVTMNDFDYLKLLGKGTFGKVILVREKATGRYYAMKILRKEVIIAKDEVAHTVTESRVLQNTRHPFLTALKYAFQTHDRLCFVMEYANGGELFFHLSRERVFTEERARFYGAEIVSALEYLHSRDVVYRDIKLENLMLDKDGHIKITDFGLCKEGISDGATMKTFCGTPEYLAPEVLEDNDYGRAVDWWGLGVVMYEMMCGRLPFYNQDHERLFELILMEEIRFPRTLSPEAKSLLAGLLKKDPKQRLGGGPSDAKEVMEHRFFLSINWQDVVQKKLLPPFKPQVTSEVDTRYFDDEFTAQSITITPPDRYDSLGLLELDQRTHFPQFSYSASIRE
T8 sequence (Q13177 whole entry): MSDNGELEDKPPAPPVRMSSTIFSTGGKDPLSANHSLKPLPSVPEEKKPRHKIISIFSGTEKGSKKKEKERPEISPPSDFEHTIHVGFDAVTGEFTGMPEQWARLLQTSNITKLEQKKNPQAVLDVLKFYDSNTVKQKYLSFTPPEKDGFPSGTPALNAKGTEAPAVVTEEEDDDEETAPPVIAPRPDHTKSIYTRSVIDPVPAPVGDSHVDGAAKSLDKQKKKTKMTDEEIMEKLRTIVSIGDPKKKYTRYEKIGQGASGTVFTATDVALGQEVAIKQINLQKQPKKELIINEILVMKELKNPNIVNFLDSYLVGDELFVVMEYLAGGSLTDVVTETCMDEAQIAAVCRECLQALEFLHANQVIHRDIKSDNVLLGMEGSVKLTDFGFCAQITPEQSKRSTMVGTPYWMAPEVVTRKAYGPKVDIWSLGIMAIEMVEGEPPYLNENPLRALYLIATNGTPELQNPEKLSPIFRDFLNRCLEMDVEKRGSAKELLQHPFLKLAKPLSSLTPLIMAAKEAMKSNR

**Q.** What does the source list for `O=C1Cc2c([nH]c3ccc(Br)cc23)-c2ccccc2N1` [Kenpaullone]?
**A.** remaining activity at 1 µM (BRSK2): 35%; remaining activity at 1 µM (CAMK1): 103%; remaining activity at 1 µM (CAMKKb): 72%; remaining activity at 1 µM (DAPK1): 82%; remaining activity at 1 µM (EIF2AK3): 94%; remaining activity at 1 µM (MAPKAP-K2): 89%; remaining activity at 1 µM (MKK2): 91%; remaining activity at 1 µM (PAK2): 96%; remaining activity at 1 µM (PKBa): 95%; remaining activity at 1 µM (PKBb): 106%; remaining activity at 1 µM (PRK2): 57%; remaining activity at 1 µM (TESK1): 19%; remaining activity at 1 µM (YES1): 100%

**Q.** How did the remaining activity at 1 µM (BRSK2) turn out when `COCCOc1ccc(-c2cn(-c3ccccc3)c3nc[nH]c(=O)c23)cc1` [DMX-5804, 5-[4-(2-methoxy-ethoxy)-phenyl]-7-phenyl-3,7-dihydro-pyrrolo[2,3-d]pyrimidin-4-one] was run?
**A.** 92%

**Q.** And the remaining activity at 1 µM (CAMK1)?
**A.** 114%

**Q.** And the remaining activity at 1 µM (CAMKKb)?
**A.** 77%

**Q.** What about the remaining activity at 1 µM (DAPK1) of the same compound?
**A.** 133%

**Q.** What about the remaining activity at 1 µM (EIF2AK3) of the same compound?
**A.** 110%

**Q.** What about the remaining activity at 1 µM (MAPKAP-K2) of the same compound?
**A.** 105%

**Q.** And the remaining activity at 1 µM (MKK2)?
**A.** 98%

**Q.** What about the remaining activity at 1 µM (PAK2) of the same compound?
**A.** 93%

**Q.** And the remaining activity at 1 µM (PKBa)?
**A.** 116%

**Q.** And the remaining activity at 1 µM (PKBb)?
**A.** 116%

**Q.** And the remaining activity at 1 µM (PRK2)?
**A.** 90%

**Q.** And the remaining activity at 1 µM (TESK1)?
**A.** 90%

**Q.** And the remaining activity at 1 µM (YES1)?
**A.** 96%

**Q.** What does the source list for `O=C1Nc2ccc(I)cc2/C1=C/c1cc(Br)c(O)c(Br)c1` [GW5074]?
**A.** remaining activity at 1 µM (BRSK2): 75%; remaining activity at 1 µM (CAMK1): 70%; remaining activity at 1 µM (CAMKKb): 19%; remaining activity at 1 µM (DAPK1): 29%; remaining activity at 1 µM (EIF2AK3): 85%; remaining activity at 1 µM (MAPKAP-K2): 81%; remaining activity at 1 µM (MKK2): 79%; remaining activity at 1 µM (PAK2): 29%; remaining activity at 1 µM (PKBa): 93%; remaining activity at 1 µM (PKBb): 69%; remaining activity at 1 µM (PRK2): 68%; remaining activity at 1 µM (TESK1): 32%; remaining activity at 1 µM (YES1): 93%

**Q.** What does the source list for `Nc1ncc(C(=O)NC2CN(C(=O)C3CC3)C2)c2ccc(-c3cccc(F)c3)nc12` [GNE-495]?
**A.** residual activity (BRSK2; 1 μM): 77%; residual activity (CAMK1; 1 μM): 93%; residual activity (CAMKKb; 1 μM): 105%; residual activity (DAPK1; 1 μM): 126%; residual activity (EIF2AK3; 1 μM): 100%; residual activity (MAPKAP-K2; 1 μM): 101%; residual activity (MKK2; 1 μM): 75%; residual activity (PAK2; 1 μM): 94%; residual activity (PKBa; 1 μM): 105%; residual activity (PKBb; 1 μM): 99%; residual activity (PRK2; 1 μM): 85%; residual activity (TESK1; 1 μM): 72%; residual activity (YES1; 1 μM): 53%

**Q.** Which results are given for `Oc1ncnc2c1c(-c1ccccc1)cn2-c1ccccc1` [F1386-0303, 5,7-diphenyl-7H-pyrrolo[2,3-d]pyrimidin-4-ol]?
**A.** remaining activity at 1 µM (BRSK2): 91%; remaining activity at 1 µM (CAMK1): 97%; remaining activity at 1 µM (CAMKKb): 98%; remaining activity at 1 µM (DAPK1): 104%; remaining activity at 1 µM (EIF2AK3): 99%; remaining activity at 1 µM (MAPKAP-K2): 101%; remaining activity at 1 µM (MKK2): 102%; remaining activity at 1 µM (PAK2): 79%; remaining activity at 1 µM (PKBa): 117%; remaining activity at 1 µM (PKBb): 95%; remaining activity at 1 µM (PRK2): 111%; remaining activity at 1 µM (TESK1): 101%; remaining activity at 1 µM (YES1): 85%
